Experiments:
[1] = system: P-selectin-Ig; experiment: Binding inhibition assay (ELISA), biotinylated versican to P-selectin-Ig, various concentrations; conditions: dose-dependent, FIG. 2 panel B
Experimental: (§1) Inhibition assay of binding between versican and each of L-selectin, P-selectin and CD44 was performed as follows. First, each well on a 96 well flat bottom microtiter plate (Coster EIA/RIA plate No. 3690) was coated with L-selectin-Ig (3 μg/ml), P-selectin-Ig (4 μg/ml) or CD44-Ig (0.25 μg/ml) by a conventional procedure. […] The plate was incubated at room temperature for 2 hours. Thereafter, the plate was washed with the buffer A, and enzyme-linked immunosorbent assay was performed in the same manner as described in Kawashima, H. et al. [J. Biol. Chem., 275, 35448-35456 (2000)]. Binding was determined by measuring absorbance at 620 nm using alkaline phosphatase-conjugated streptavidin and Blue Phos™ substrate.

[2] = target: T1, L-selectin-Ig (Homo sapiens, UniProt P14151); experiment: Binding inhibition assay (ELISA), biotinylated versican to L-selectin-Ig, various concentrations; conditions: dose-dependent, FIG. 2 panel A
T1 construct: purchased R & D Systems Inc
T1 sequence (P14151 with tags, fused parts or gaps limits assumed): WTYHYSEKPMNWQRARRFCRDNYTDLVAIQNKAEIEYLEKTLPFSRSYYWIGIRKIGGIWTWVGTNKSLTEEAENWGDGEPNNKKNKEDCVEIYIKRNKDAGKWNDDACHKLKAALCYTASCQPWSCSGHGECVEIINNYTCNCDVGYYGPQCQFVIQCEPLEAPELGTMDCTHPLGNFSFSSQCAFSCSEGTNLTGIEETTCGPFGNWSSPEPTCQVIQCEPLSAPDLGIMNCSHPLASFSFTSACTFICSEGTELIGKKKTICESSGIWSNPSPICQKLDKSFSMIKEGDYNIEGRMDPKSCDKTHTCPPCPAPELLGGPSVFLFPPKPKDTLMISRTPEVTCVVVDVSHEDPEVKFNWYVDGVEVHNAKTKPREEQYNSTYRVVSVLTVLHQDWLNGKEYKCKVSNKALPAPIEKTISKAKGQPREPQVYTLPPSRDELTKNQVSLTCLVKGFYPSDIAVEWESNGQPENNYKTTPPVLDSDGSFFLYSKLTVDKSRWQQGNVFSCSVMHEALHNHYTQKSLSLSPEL
Experimental: as §1

dermatan sulfate [DS]
inhibition of binding between biotinylated versican and P-selectin-Ig [1]: not inhibited | inhibition of binding between biotinylated versican and L-selectin-Ig [2]: not inhibited
